Assay results published in article PMC6787163, “Systematic Dual Targeting of Dendritic Cell C-Type Lectin Receptor DC-SIGN and TLR7 Using a Trifunctional Mannosylated Antigen” (Frontiers in Chemistry, 2019).
Several values for one entry are separate records, joined by “and”; a condition that tells them apart may be missing. Equal entries are not always repeated.

Key:
DC-SIGN S-ECD = molecular target: T1, DC-SIGN S-ECD (Homo sapiens, UniProt Q9NNX6); experiment: SPR direct interaction assay on oriented DC-SIGN S-ECD surface; type: binding; settings: for Kd: SPR direct interaction, oriented tetrameric DC-SIGN ECD surface, apparent Kd, read-out: Kdapp
T1 construct: The ECD of DC-SIGN (residues 66–404) was overexpressed and purified as previously described; made in house
T1 sequence (Q9NNX6 66-404): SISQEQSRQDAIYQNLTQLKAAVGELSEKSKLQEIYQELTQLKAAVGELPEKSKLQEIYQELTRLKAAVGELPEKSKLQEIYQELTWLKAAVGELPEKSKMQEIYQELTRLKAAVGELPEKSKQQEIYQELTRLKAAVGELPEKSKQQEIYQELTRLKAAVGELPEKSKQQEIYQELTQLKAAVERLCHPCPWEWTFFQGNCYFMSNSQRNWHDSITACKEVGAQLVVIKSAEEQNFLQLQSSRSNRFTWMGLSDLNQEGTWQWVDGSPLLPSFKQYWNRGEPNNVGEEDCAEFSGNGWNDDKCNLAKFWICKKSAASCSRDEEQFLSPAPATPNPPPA
Procedure: The affinity of the clusters for the extracellular domain (ECD) of the DC-SIGN receptor (DC-SIGN ECD) was estimated via surface plasmon resonance (SPR) assays (Tabarani et al., [2009]). The apparent Kd was calculated in direct interaction mode using a surface functionalized in an oriented manner with DC-SIGN ECD. In this assay, tetrameric DC-SIGN ECD is attached to the surface of the sensor chip via the N-terminus of its neck oligomerization domain, thus presenting its four carbohydrate recognition domains toward the solvent, realistically mimicking the presentation of the receptor on cell surface (Porkolab et al., [2019]). For some of the low affinity ligands, in the mM range, it was not possible to determine their affinity with this assay, and therefore a competition experiment was performed providing IC50 values (Timpano et al., [2008]) (Figure 3A). […] When comparing equivalent clusters, the α1,2-di-mannoside (B series) bound with the highest affinity (Figure 3A). […] A potential explanation for this effect could be that the spacing of clusters is more important for the larger tri-mannosides.
The direct interaction experiments were executed on a T200 Biacore with a CM3 series S sensor chip. Contrary to the competition assay described above, in this test, DC-SIGN ECD used harbors a StreptagII in its N-terminus (DC-SIGN S-ECD) to allow its capture and functionalization onto the surface in an oriented manner. Flow cells were functionalized as previously described (Porkolab et al., [2019]). Briefly, after EDC/NHS activation, flow cells were functionalized with streptactin protein in a first step. Flow cell 1 was used as control, while other flow cells were, in a second round of activation, functionalized with 100 μg/mL of a DC-SIGN S-ECD up to a final density ranging between 2,500 and 3,000 RU, via tag specific capture and linkage by amine coupling chemistry simultaneously. The compounds were injected in running buffer of 25 mM Tris pH 8, 150 mM NaCl, 4 mM CaCl2, 0.05% Tween 20 onto the surface at increasing concentrations with a flow rate of 30 μL/min. The ligand titration led to the determination of an apparent Kd value. The data was analyzed in BIAcore BIAevaluation software for direct interaction 1:1 calculation assuming that the Kd will reflect the affinity of the ligands (glycoclusters) for the DC-SIGN oriented surface used as a whole.

moDCs = experiment: Internalization of biotinylated hexavalent clusters by moDCs (flow cytometry); type: cell-based, human
Procedure: For the internalization, the moDCs were incubated with clusters b6, c6, d6, and e6 for 1 h at 4°C, where after unbound ligands were washed away with ice-cold medium. Warm medium was added to the moDCs, and samples were taken at the indicated time points and put on ice. Upon staining the moDCs with fluorophore-conjugated streptavidin, we could measure the signal loss of the membrane via flow cytometry. To exclude ligand-receptor dissociation before internalization, the moDCs were fixed under gentle conditions, hereby inhibiting receptor-mediated endocytosis. On fixed moDCs the clusters remained at the surface, as no signal loss could be detected (Supplementary Figure 1D). […] The di-mannoside clusters (b6, c6, and d6) were internalized relatively fast, with a 50% uptake within 5 min (Figure 5B). The tri-mannoside cluster e6 however remained longer at the membrane surface and only a 25% uptake was seen after 30 min. Similar results were seen using a pH-sensitive fluorophore. In acidic environments, such as the endosomes and lysosomes, the fluorescence of this dye increases. Pre-complexed clusters mirrored the accelerated uptake of the di-mannoside clusters over the e6 cluster (Supplementary Figure 1E). Although the DC-SIGN mediated uptake mechanism is known (Cambi et al., [2009]), the initiation trigger for endocytosis upon DC-SIGN-ligand binding remains unclear. Recognition of the di-mannoside clusters could induce signaling leading to accelerated uptake, whereas the tri-mannoside cluster could trigger a different signaling pathway. Nonetheless, the clusters harboring the smaller mannosides are preferred. Although the binding affinity of the clusters ranged from 0.9 to 6.6 μM, the di-mannosides induce more rapid DC-SIGN internalization over the tri-mannosides, and can thus increase intracellular peptide concentrations more efficiently for further antigen processing and presentation.
Immature day 5 moDCs were harvested and washed with cold HBSS (Thermo Fischer), after which half of the moDCs were gently fixed for 20 min at RT with 1% PFA in PBS. Afterwards, 20 μM of the different biotinylated mannose-clusters in cold HBSS were added. The moDCs were incubated for 1 h on ice, and washed in cold HBSS. Subsequently, warm HBSS was added to the cells, and cells were incubated at 37°C in a shaking heating block. At the indicated time points, a sample of the cells was taken and put on ice. After the last time point, the cells were stained with Streptavidin-Alexa647 (Thermo Fisher), measured using flow cytometry (CyAn™ ADP with Summit™ Software), and further analyzed using FlowJo v10. The same procedure was used for internalization with pHrodo^TM Red Avidin (Thermo Fischer). The different biotinylated mannose-clusters were however incubated with pHrodo-Avidin (ratio 2:1) for 15 min at 37°C, prior to moDC exposure. The fluorescence upon internalization was measured using flow cytometry (BD LSRFortessa™ X-20 with FACSDiva Software), and further analyzed using FlowJo v10.

SMILES	Kd (DC-SIGN S-ECD)	also measured
CC[C@H](NC(=O)[C@H](CC(=O)O)NC(=O)[C@H](CC(C)C)NC(=O)[C@H](CCCNC(=N)N)NC(=O)[C@H](CCC(N)=O)NC(=O)[C@H](C)NC(=O)[C@H](CCC(=O)O)NC(=O)[C@@H](NC(=O)[C@H](Cc1c[nH]c2ccccc12)NC(=O)[C@H](CCC(=O)O)NC(=O)[C@@H]1CCCN1C(=O)[C@H](Cc1ccc(O)cc1)NC(=O)[C@H](CC(C)C)NC(=O)[C@H](CCC(N)=O)NC(=O)[C@H](CCCNC(=N)N)NC(=O)[C@H](CC(N)=O)NC(=O)[C@H](C)NC(=O)[C@@H](NC(=O)[C@@H](NC(=O)[C@@H]1CCCN1C(=O)CNC(=O)[C@@H]1CCCN1C(=O)[C@H](CCC(=O)O)NC(=O)[C@H](CC(C)C)NC(=O)[C@H](Cc1ccc(O)cc1)NC(=O)[C@@H](NC(=O)[C@H](Cc1c[nH]cn1)NC(=O)[C@@H](NC(=O)[C@@H](NC(=O)[C@H](CCCCn1cc(CCC(=O)NCCCC[C@H](NC(=O)CNC(=O)[C@H](CCCCn2cc(CO[C@H]3O[C@H](CO)[C@@H](O)[C@H](O)[C@@H]3O[C@H]3O[C@H](CO)[C@@H](O)[C@H](O)[C@@H]3O)nn2)NC(=O)[C@H](CCCCn2cc(CO[C@H]3O[C@H](CO)[C@@H](O)[C@H](O)[C@@H]3O[C@H]3O[C@H](CO)[C@@H](O)[C@H](O)[C@@H]3O)nn2)NC(=O)[C@H](CCCCn2cc(CO[C@H]3O[C@H](CO)[C@@H](O)[C@H](O)[C@@H]3O[C@H]3O[C@H](CO)[C@@H](O)[C@H](O)[C@@H]3O)nn2)NC(=O)[C@H](CCCCn2cc(CO[C@H]3O[C@H](CO)[C@@H](O)[C@H](O)[C@@H]3O[C@H]3O[C@H](CO)[C@@H](O)[C@H](O)[C@@H]3O)nn2)NC(=O)[C@H](CCCCn2cc(CO[C@H]3O[C@H](CO)[C@@H](O)[C@H](O)[C@@H]3O[C@H]3O[C@H](CO)[C@@H](O)[C@H](O)[C@@H]3O)nn2)NC(=O)[C@H](CCCCn2cc(CO[C@H]3O[C@H](CO)[C@@H](O)[C@H](O)[C@@H]3O[C@H]3O[C@H](CO)[C@@H](O)[C@H](O)[C@@H]3O)nn2)NC(C)=O)C(N)=O)nn1)NC(C)=O)C(C)C)[C@@H](C)O)[C@@H](C)O)C(C)C)[C@@H](C)O)[C@@H](C)O)C(=O)N[C@@H](Cc1c[nH]c2ccccc12)C(=O)N[C@@H](CCCNC(=N)N)C(=O)NCC(=O)N[C@@H](CCCCN)C(N)=O [B6-gp100]	–	decrease of DC-SIGN affinity on conjugation to gp100 or gp100-TLR7L (factor) (DC-SIGN S-ECD; Kd-app of conjugate vs unconjugated cluster): about 10
CC(=O)N[C@@H](CCCCn1cc(CO[C@H]2O[C@H](CO)[C@@H](O)[C@H](O)[C@@H]2O[C@H]2O[C@H](CO)[C@@H](O)[C@H](O)[C@@H]2O)nn1)C(=O)N[C@@H](CCCCn1cc(CO[C@H]2O[C@H](CO)[C@@H](O)[C@H](O)[C@@H]2O[C@H]2O[C@H](CO)[C@@H](O)[C@H](O)[C@@H]2O)nn1)C(=O)N[C@@H](CCCCn1cc(CO[C@H]2O[C@H](CO)[C@@H](O)[C@H](O)[C@@H]2O[C@H]2O[C@H](CO)[C@@H](O)[C@H](O)[C@@H]2O)nn1)C(=O)N[C@@H](CCCCn1cc(CO[C@H]2O[C@H](CO)[C@@H](O)[C@H](O)[C@@H]2O[C@H]2O[C@H](CO)[C@@H](O)[C@H](O)[C@@H]2O)nn1)C(=O)N[C@@H](CCCCn1cc(CO[C@H]2O[C@H](CO)[C@@H](O)[C@H](O)[C@@H]2O[C@H]2O[C@H](CO)[C@@H](O)[C@H](O)[C@@H]2O)nn1)C(=O)N[C@@H](CCCCn1cc(CO[C@H]2O[C@H](CO)[C@@H](O)[C@H](O)[C@@H]2O[C@H]2O[C@H](CO)[C@@H](O)[C@H](O)[C@@H]2O)nn1)C(=O)NCC(=O)N[C@@H](CCCCN)C(N)=O [B6]	0.95 µM and 0.946 µM and 0.9 µM	internalization by moDCs (loss of surface streptavidin signal) (moDCs; 20 μM cluster, live moDCs): rapidly internalized; internalization by moDCs (pHrodo-avidin fluorescence increase) (moDCs; clusters pre-complexed with pH-sensitive dye): internalized rapidly; uptake by immature moDCs (moDCs; within 5 min at 37°C, 20 μM cluster): 50%
CC(=O)N[C@@H](CCCCn1cc(CO[C@H]2O[C@H](CO[C@H]3O[C@H](CO)[C@@H](O)[C@H](O)[C@@H]3O)[C@@H](O)[C@H](O)[C@@H]2O)nn1)C(=O)NCC(=O)N[C@@H](CCCCn1cc(CO[C@H]2O[C@H](CO[C@H]3O[C@H](CO)[C@@H](O)[C@H](O)[C@@H]3O)[C@@H](O)[C@H](O)[C@@H]2O)nn1)C(=O)NCC(=O)N[C@@H](CCCCn1cc(CO[C@H]2O[C@H](CO[C@H]3O[C@H](CO)[C@@H](O)[C@H](O)[C@@H]3O)[C@@H](O)[C@H](O)[C@@H]2O)nn1)C(=O)NCC(=O)N[C@@H](CCCCN)C(N)=O [D3]	48.7 ± 2.57 µM	–

Continued, in another order:

Kd (DC-SIGN S-ECD)	SMILES	also measured
19.5 ± 0.5 µM	CC(=O)N[C@@H](CCCCn1cc(CO[C@H]2O[C@H](CO)[C@@H](O)[C@H](O)[C@@H]2O[C@H]2O[C@H](CO)[C@@H](O)[C@H](O)[C@@H]2O)nn1)C(=O)NCC(=O)N[C@@H](CCCCn1cc(CO[C@H]2O[C@H](CO)[C@@H](O)[C@H](O)[C@@H]2O[C@H]2O[C@H](CO)[C@@H](O)[C@H](O)[C@@H]2O)nn1)C(=O)NCC(=O)N[C@@H](CCCCn1cc(CO[C@H]2O[C@H](CO)[C@@H](O)[C@H](O)[C@@H]2O[C@H]2O[C@H](CO)[C@@H](O)[C@H](O)[C@@H]2O)nn1)C(=O)NCC(=O)N[C@@H](CCCCN)C(N)=O [B3]	–
2.44 µM	CC(=O)N[C@@H](CCCCn1cc(CO[C@H]2O[C@H](CO[C@H]3O[C@H](CO)[C@@H](O)[C@H](O)[C@@H]3O)[C@@H](O)[C@H](O[C@H]3O[C@H](CO)[C@@H](O)[C@H](O)[C@@H]3O)[C@@H]2O)nn1)C(=O)NCC(=O)N[C@@H](CCCCn1cc(CO[C@H]2O[C@H](CO[C@H]3O[C@H](CO)[C@@H](O)[C@H](O)[C@@H]3O)[C@@H](O)[C@H](O[C@H]3O[C@H](CO)[C@@H](O)[C@H](O)[C@@H]3O)[C@@H]2O)nn1)C(=O)NCC(=O)N[C@@H](CCCCn1cc(CO[C@H]2O[C@H](CO[C@H]3O[C@H](CO)[C@@H](O)[C@H](O)[C@@H]3O)[C@@H](O)[C@H](O[C@H]3O[C@H](CO)[C@@H](O)[C@H](O)[C@@H]3O)[C@@H]2O)nn1)C(=O)NCC(=O)N[C@@H](CCCCN)C(N)=O [E3]	–
